Assay results published in US20220017866A1, “PRODUCTION METHODS FOR MEGAKARYOCYTES AND PLATELETS” (KYOTO UNIVERSITY, priority 2013, published 2022).
Where a SMILES comes first, the peptide text is derived from it. The star is where a group is joined. Cbz = O=C(OCc1ccccc1)*; CH2F = FC*

How the values were obtained:
[1] = system: megakaryocytic progenitor cells; experiment: Expanding culture of c-Myc and BMI1-introduced cells with caspase inhibitor added in place of BCL-XL; type: cell-based, human; settings: 30 μM added after c-Myc and BMI1 introduction; culture for 66 days
Protocol: In place of expressing BCL-XL, another method for controlling caspase was investigated as follows. After c-Myc and BMI1 were introduced, a caspase inhibitor, i.e., Z-VAD FMK (Merck) (10 μM or 30 μM) was added. In this condition, culture was continued for 66 days. When BCL-XL was expressed, the cells proliferated by 64 times; whereas when 30 μM of Z-VAD FMK was added, the cells proliferated by 21 times (FIG. 10). In contrast, when DMSO was used (negative control), no proliferation was observed. Furthermore, when DMSO was used, the number of Annexin V positive cells was counted. As a result, many Annexin V positive cells were present (66.5%). From this, it was confirmed that apoptosis was not suppressed.

[2] = system: c-MYC-DD-2A-BMI1-introduced cells
Protocol: (§1) Therefore, the activity of caspase-3/7 in the presence of Shield-1 was then measured.

caspase-3/7 = experiment: Caspase-3/7 activity in the presence of Shield-1; type: cell-based, human; settings: Day 2
Protocol: as §1

activity of caspase-3/7 (caspase-3/7) | SMILES | cell proliferation [1] [times] | toxic effect [2] | number of megakaryocytic progenitor cells ([2]; c-MYC expression stabilized by adding Shield-1, Day 7)
– | COC(=O)C[C@H](NC(=O)[C@H](C)NC(=O)[C@@H](NC(=O)OCc1ccccc1)C(C)C)C(=O)CF [Z-VAD FMK] (Cbz-Val-Ala-Asp(OMe)-CH2F) | 21 | – | –
caspase was activated | CC[C@H](C(=O)N1CCCC[C@H]1C(=O)O[C@H](CCc1ccc(OC)c(OC)c1)c1cccc(OCCN2CCOCC2)c1)c1cc(OC)c(OC)c(OC)c1 [Shield-1] | – | did not have toxic effect | decreased in volume-dependent manner
